Test results reported in patent US11965006B2, “Antimicrobial and anti-cancer therapy” (UNIVERSITY OF PITTSBURGH—OF THE COMMONWEALTH SYSTEM OF …, priority 2016, dated 2024).
“Also recorded” adds a separate entry of the source. Blank lines part the entries; values can stand above or below the compound they belong to. Square brackets hold non-standard residues; d marks the D form. Ends that are not written are not given here. Peptide text beside a SMILES is read from it.

How the values were obtained:
[1] = system: P. aeruginosa lipopolysaccharide (LPS)-induced secretion of tumor necrosis factor (TNF) in Raw (264.7) Cells; experiment: Neutralization of LPS-induced TNF secretion; format: cell-based; conditions: 1 μg/ml LPS
Experimental: Anti-inflammatory activity is based on the determination of cytokine stimulation of major inflammatory (e.g. TNF) or anti-inflammatory (e.g., IL-10) cytokines. For in vitro studies, TNF is measured using culture medium from LPS-stimulated macrophage cultures in the presence or absence of peptide treatment. For in vivo studies, cytokine levels in bronchoalveolar lavage (BAL) fluid were quantified using the mouse cytokine multiplex panel assay (Milliplex; Millipore, Billerica, Mass.). The expressions of cytokines were analyzed using the Luminex assay system, based on manufacturer's instructions and our previous publication. Standard recombinant protein solution was used to generate a standard curve for each analyzed protein. Absolute cytokine concentrations were calculated from the standard curve for each cytokine.
A high dosage (1 μg/ml) of LPS was used to stimulate the TNF secretion in raw cells.

[2] = system: Enterococcus faecium MDR clinical isolates; format: cell-based; conditions: MDR clinical isolates, 18 h
Experimental: (§1) The bactericidal activities were examined using standard bacterial culture media (MHB) without the inclusion of human blood.
(§2) Tables 3 and 4 provide the MIC data for the tested AMPs against a variety of infectious species. The following strains were tested: Enterococcus faecium MDR clinical isolates Ef 25153 and Ef 26125; methicillin-resistant Staphylococcus aureus (MRSA) clinical isolates USA300 and 150-10; Klebsiella pneumonia MDR clinical isolates C3, C5, A5, D7 and E6; and Pseudomonas aeruginosa MDR clinical isolates PA 82-8 and PA 129-5. […] Table 5 provides the data for the D-amino acid substituted AMPs and their bactericidal activities against various Klebsiella pneumonia multi-drug resistant (MDR) clinical isolates. All odd number Kp bacteria (isolated prior to colistin treatment; colistin sensitive) are paired with the corresponding even number Kp bacteria (isolated after colistin treatment; colistin resistant) from the same patient. O.D. readings represent the bacterial growth with a background reading of about 0.049+/−0.003.

[3] = system: Klebsiella pneumonia MDR clinical isolates; format: cell-based; conditions: 18 h
Experimental: as §1, §2

[4] = system: methicillin-resistant Staphylococcus aureus (MRSA) clinical isolates; format: cell-based; conditions: methicillin-resistant clinical isolates, 18 h
Experimental: as §1, §2

[5] = system: Pseudomonas aeruginosa MDR clinical isolates; format: cell-based; conditions: MDR clinical isolates, 18 h
Experimental: as §1, §2

[6] = In vivo toxicity / maximum tolerated dose; set-up: species or system Mice (strain: Swiss Webster)
Experimental: The modified AMPs show a lower toxicity and higher maximum tolerated dosage (MTD) than WLBU2 (SEQ ID No. 26). The MTD for WLBU2 (SEQ ID No. 26) is 15 mg/kg, for Colistin is 10 mg/kg, and SEQ ID No. 15 is 30 mg/kg (FIG. 14A).
Mice (strain: Swiss Webster) were injected with SEQ ID No. 15 peptides intravenously (i.v.) or intraperitoneally (i.p.) at the concentrations indicated. […] Thus, the estimated maximum tolerated dose (MTD) is around 40-50 mpk (i.v.). On a similar setting of testing other AMPS, the MTD for WLBU2 is 15 mpk (i.v.) and 10 mpk (i.v.) for colistin.

[7] = system: Klebsiella pneumonia multi-drug resistant (MDR) clinical isolates; experiment: Bacterial growth (O.D. readings) of Kp isolates treated with D-amino acid substituted AMPs; format: cell-based
Experimental: as §2

[8] = Kp strain 1 (colistin sensitive), background about 0.049
[9] = Kp strain 2 (colistin resistant), background about 0.049
[10] = Kp strain 3 (colistin sensitive)
[11] = Kp strain 4 (colistin resistant)
[12] = Kp strain 5 (colistin sensitive)
[13] = Kp strain 6 (colistin resistant)
[14] = Kp strain 7 (colistin sensitive)
[15] = Kp strain 8 (colistin resistant)
[16] = Kp strain 9 (colistin sensitive)
[17] = Kp strain 10 (colistin resistant)
[18] = Kp strain 11 (colistin sensitive)
[19] = Kp strain 12 (colistin resistant)
[20] = Kp strain 13 (colistin sensitive)
[21] = Kp strain 14 (colistin resistant)
[22] = Kp strain 15 (colistin sensitive)
[23] = Kp strain 16 (colistin resistant)
[24] = Kp strain 17 (colistin sensitive)
[25] = Kp strain 18 (colistin resistant)
[26] = Kp strain 19 (colistin sensitive)
[27] = Kp strain 20 (colistin resistant)
[28] = Kp strain 21 (colistin sensitive)
[29] = Kp strain 22 (colistin resistant)
[30] = Kp strain 23 (colistin sensitive)
[31] = Kp strain 24 (colistin resistant)

Compound: LKKWWKTSKGLLGGLLGKVTSVIK [SEQ ID No. 13]
neutralizing LPS-induced TNF secretion [1]: Display Neutralizing Activities | MIC Ef 25153 [2]: <16 µM | MIC Ef 26125 [2]: <8 µM | MIC A5 [3]: >16 µM | MIC C3 [3]: >16 µM | MIC C5 [3]: 16 µM | MIC D7 [3]: <8 µM | MIC E6 [3]: <8 µM | MIC MRSA USA300 [4]: <8 µM | MIC PA82 82-8 [5]: 16 µM | MIC PA 129-5 [5]: <16 µM

Compound: LLGDFFRKSKEKIGKEFKRIVQRIKDFLRNLLPRTES [SEQ ID No. 25, reference compound]
neutralizing LPS-induced TNF secretion [1]: Do Not Neutralize | MIC Ef 25153 [2]: <16 µM | MIC Ef 26125 [2]: <16 µM | MIC A5 [3]: >32 µM | MIC C3 [3]: 32 µM | MIC C5 [3]: >32 µM | MIC D7 [3]: <16 µM | MIC E6 [3]: <16 µM | MIC MRSA 150-10 [4]: 32 µM | MIC MRSA USA300 [4]: >32 µM | MIC PA 82-8 [5]: 32 µM | MIC PA 129-5 [5]: 16 µM

MIC Ef 25153 [2]: <2 µM | MIC Ef 26125 [2]: <2 µM | MIC A5 [3]: >4 µM | MIC C3 [3]: <2 µM | MIC C5 [3]: 4 µM | MIC D7 [3]: <2 µM | MIC E6 [3]: <2 µM | MIC MRSA 150-10 [4]: <2 µM | MIC MRSA USA300 [4]: <2 µM | MIC PA82 82-8 [5]: 4 µM | MIC PA 129-5 [5]: <2 µM
Compound: LKKWWKKVKGLLGGLLGKVKKVIK [SEQ ID No. 17]

Compound: LKKWWKKVKGLLGGLLGKVTSVIK [SEQ ID No. 15]
MIC Ef 25153 [2]: 2 µM | MIC Ef 26125 [2]: <1 µM | MIC A5 [3]: >4 µM | MIC C3 [3]: <2 µM | MIC C5 [3]: 4 µM | MIC D7 [3]: 2 µM | MIC E6 [3]: 2 µM | MIC MRSA 150-10 [4]: 2 µM | MIC MRSA USA300 [4]: 4 µM | MIC PA82 82-8 [5]: 2 µM | MIC PA 129-5 [5]: 1 µM | tolerability ([6]; 60 mg/kg i.v.): One mouse injected with 60 mg/kg (mpk, i.v.) died | tolerability ([6]; 30 mpk i.p.): all mice were active and tolerated the dosage | tolerability ([6]; 40 mpk i.v.): all mice were active and tolerated the dosage | MTD ([6]; Swiss Webster, mouse, in vivo, FIG. 14A, read-out: maximum tolerated dosage (MTD)): 30 mg/kg | in vivo toxicity ([6]; figure legends FIG. 14A, FIG. 30): lower toxicity (higher MTD) than WLBU2; also recorded: very low in vivo toxicity | maximum tolerated dose (MTD) ([6]; i.v., Swiss Webster mice): 40-50 mpk

Compound: ILKPGGGTSGGLLGGLLGKVTSVIPGLNNI [SEQ ID No. 1, reference compound]
neutralizing LPS-induced TNF secretion [1]: display neutralizing activities | MIC Ef 25153 [2]: >32 µM | MIC Ef 26125 [2]: >32 µM | MIC A5 [3]: >32 µM | MIC C3 [3]: >32 µM | MIC C5 [3]: >32 µM | MIC D7 [3]: >32 µM | MIC E6 [3]: >32 µM | MIC MRSA 150-10 [4]: >32 µM | MIC MRSA USA300 [4]: >32 µM | MIC PA 82-8 [5]: >32 µM | MIC PA 129-5 [5]: >32 µM

Compound: GVKKKWKKKLGLKLWLKISGVVLG [SEQ ID No. 24, reference compound]
neutralizing LPS-induced TNF secretion [1]: Display Neutralizing Activities | MIC Ef 25153 [2]: >32 µM | MIC Ef 26125 [2]: 16 µM | MIC A5 [3]: 32 µM | MIC C3 [3]: 32 µM | MIC MRSA 150-10 [4]: >32 µM | MIC MRSA USA300 [4]: >32 µM | MIC PA 82-8 [5]: >32 µM | MIC PA 129-5 [5]: <16 µM

Compound: CC(C)[C@H](NC(=O)[C@H](Cc1c[nH]c2ccccc12)NC(=O)[C@H](CCCNC(=N)N)NC(=O)[C@@H](N)CCCNC(=N)N)C(=O)N[C@@H](CCCNC(=N)N)C(=O)N[C@@H](CCCNC(=N)N)C(=O)N[C@@H](C(=O)N[C@@H](CCCNC(=N)N)C(=O)N[C@@H](CCCNC(=N)N)C(=O)N[C@H](C(=O)N[C@@H](Cc1c[nH]c2ccccc12)C(=O)N[C@@H](CCCNC(=N)N)C(=O)N[C@@H](CCCNC(=N)N)C(=O)N[C@H](C(=O)N[C@@H](C(=O)N[C@@H](CCCNC(=N)N)C(=O)N[C@@H](C(=O)N[C@H](C(=O)N[C@@H](CCCNC(=N)N)C(=O)N[C@@H](CCCNC(=N)N)C(=O)N[C@@H](Cc1c[nH]c2ccccc12)C(=O)N[C@@H](C(=O)N[C@@H](CCCNC(=N)N)C(=O)N[C@@H](CCCNC(=N)N)C(=O)O)C(C)C)C(C)C)C(C)C)C(C)C)C(C)C)C(C)C)C(C)C [SEQ ID No. 32] (H-RRWVRR[dV]RRVWRRV[dV]R[dV]VRRW[dV]RR-OH; N-terminus and C-terminus assumed)
O.D. reading [7, 8]: 0.039 | O.D. reading [7, 9]: 0.044 | O.D. reading [7, 10]: 0.043 | O.D. reading [7, 11]: 0.042 | O.D. reading [7, 12]: 0.042 | O.D. reading [7, 13]: 0.107 | O.D. reading [7, 14]: 0.042 | O.D. reading [7, 15]: 0.04 | O.D. reading [7, 16]: 0.042 | O.D. reading [7, 17]: 0.048 | O.D. reading [7, 18]: 0.048 | O.D. reading [7, 19]: 0.05 | O.D. reading [7, 20]: 0.048 | O.D. reading [7, 21]: 0.047 | O.D. reading [7, 22]: 0.048 | O.D. reading [7, 23]: 0.045 | O.D. reading [7, 24]: 0.045 | O.D. reading [7, 25]: 0.047 | O.D. reading [7, 26]: 0.048 | O.D. reading [7, 27]: 0.049 | O.D. reading [7, 28]: 0.051 | O.D. reading [7, 29]: 0.048 | O.D. reading [7, 30]: 0.048 | O.D. reading [7, 31]: 0.11

MIC Ef 25153 [2]: <2 µM | MIC Ef 26125 [2]: <2 µM | MIC A5 [3]: >4 µM | MIC C3 [3]: <2 µM | MIC C5 [3]: 4 µM | MIC D7 [3]: <2 µM | MIC E6 [3]: <2 µM | MIC MRSA 150-10 [4]: 4 µM | MIC MRSA USA300 [4]: <2 µM | MIC PA82 82-8 [5]: 4 µM | MIC PA 129-5 [5]: 4 µM
Compound: LKKWWKKVKGLLGGLLGKVKSVIK [SEQ ID No. 16]

Compound: CC(C)[C@H](NC(=O)[C@H](Cc1c[nH]c2ccccc12)NC(=O)[C@H](CCCNC(=N)N)NC(=O)[C@@H](N)CCCNC(=N)N)C(=O)N[C@@H](CCCNC(=N)N)C(=O)N[C@@H](CCCNC(=N)N)C(=O)N[C@@H](C(=O)N[C@@H](CCCNC(=N)N)C(=O)N[C@@H](CCCNC(=N)N)C(=O)N[C@@H](C(=O)N[C@@H](Cc1c[nH]c2ccccc12)C(=O)N[C@@H](CCCNC(=N)N)C(=O)N[C@@H](CCCNC(=N)N)C(=O)N[C@H](C(=O)N[C@@H](C(=O)N[C@@H](CCCNC(=N)N)C(=O)N[C@@H](C(=O)N[C@@H](C(=O)N[C@@H](CCCNC(=N)N)C(=O)N[C@@H](CCCNC(=N)N)C(=O)N[C@@H](Cc1c[nH]c2ccccc12)C(=O)N[C@@H](C(=O)N[C@@H](CCCNC(=N)N)C(=O)N[C@@H](CCCNC(=N)N)C(=O)O)C(C)C)C(C)C)C(C)C)C(C)C)C(C)C)C(C)C)C(C)C [SEQ ID No. 33] (H-RRWVRR[dV]RR[dV]WRRV[dV]R[dV][dV]RRW[dV]RR-OH; N-terminus and C-terminus assumed)
O.D. reading [7, 8]: 0.104 | O.D. reading [7, 9]: 0.108 | O.D. reading [7, 10]: 0.048 | O.D. reading [7, 11]: 0.047 | O.D. reading [7, 12]: 0.053 | O.D. reading [7, 13]: 0.12 | O.D. reading [7, 14]: 0.046 | O.D. reading [7, 15]: 0.056 | O.D. reading [7, 16]: 0.043 | O.D. reading [7, 17]: 0.131 | O.D. reading [7, 18]: 0.057 | O.D. reading [7, 19]: 0.066 | O.D. reading [7, 20]: 0.05 | O.D. reading [7, 21]: 0.089 | O.D. reading [7, 22]: 0.048 | O.D. reading [7, 23]: 0.054 | O.D. reading [7, 24]: 0.044 | O.D. reading [7, 25]: 0.048 | O.D. reading [7, 26]: 0.049 | O.D. reading [7, 27]: 0.05 | O.D. reading [7, 28]: 0.048 | O.D. reading [7, 29]: 0.05 | O.D. reading [7, 30]: 0.047 | O.D. reading [7, 31]: 0.076
